Values joined by “and” are separate entries in the source; they are usually repeats but may differ in a detail not shown here. Equal entries are not always repeated.
How the values were obtained:
Nox2 [1] = target: T1, Nox2 (Homo sapiens, UniProt P04839); assay: ROS (H2O2) generation in whole COS-Nox2 cells, Amplex Red assay; format: cell-based; details: for IC50: whole COS-Nox2 cells stimulated with 5 μM PMA, Amplex Red; for Nox2 inhibitory activity: Table 2; for Selectivity for Nox2 over other Nox isoforms: cell-based assays for each Nox system
T1 construct: expressed in transfected cells
T1 sequence (P04839 2-570 limits assumed): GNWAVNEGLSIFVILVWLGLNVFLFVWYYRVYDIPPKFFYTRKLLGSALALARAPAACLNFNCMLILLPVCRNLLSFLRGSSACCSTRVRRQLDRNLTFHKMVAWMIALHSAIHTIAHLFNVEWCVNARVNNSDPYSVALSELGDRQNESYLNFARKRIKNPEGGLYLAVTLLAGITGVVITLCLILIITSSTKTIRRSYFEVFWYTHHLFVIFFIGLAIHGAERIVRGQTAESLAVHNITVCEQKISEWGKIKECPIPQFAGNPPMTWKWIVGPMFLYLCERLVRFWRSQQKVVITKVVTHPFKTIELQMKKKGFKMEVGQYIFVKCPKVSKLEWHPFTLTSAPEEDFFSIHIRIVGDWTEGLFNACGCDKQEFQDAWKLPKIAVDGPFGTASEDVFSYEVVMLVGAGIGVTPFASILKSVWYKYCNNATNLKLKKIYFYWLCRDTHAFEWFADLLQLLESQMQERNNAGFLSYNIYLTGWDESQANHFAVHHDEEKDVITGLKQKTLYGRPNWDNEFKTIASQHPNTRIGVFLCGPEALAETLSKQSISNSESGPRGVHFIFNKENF
Description: (§1) All cell culture reagents were obtained from Invitrogen, unless indicated. COS-22 (COS-7 cells stably expressing human p22^phox) and COS-Nox2 (a.k.a. COS-phox) cells (COS-7 cells stably expressing human p22^phox, Nox2, p47^phox and p67^phox) were kindly provided by Dr. Mary C. Dinauer (Indiana University, School of Medicine) (Price et al., Blood, 2002, 99:2653-2661). COS-22 cells were maintained in Dulbecco's Modified Eagle Medium (DMEM) with 4.5 g/L glucose, L-glutamine and sodium pyruvate containing 10% heat-inactivated fetal bovine serum (FBS), 100 units/ml penicillin and 100 μg/ml streptomycin (complete media) supplemented with 1.8 mg/ml G418 (Calbiochem/EMB Bioscience, Gibbstown, N.J.). COS-Nox2 cells were maintained in complete media supplemented with 1.8 mg/mL G418, 1 μg/mL puromycin (Sigma, St Louis, Mo.) and 0.2 mg/mL hygromycin B (Invitrogen, Carlsbad, Calif.). HEK-Nox5 cells were kindly provided by Dr. David Fulton (Georgia Health Sciences University) and maintained in complete media.
H2O2 production was quantified in intact COS-Nox4 cells by Amplex® Red. Briefly, COS-Nox4 cells (5×10^4 cells/ml) were re-plated into 384-well plate in assay buffer (25 mM Hepes, pH 7.4, containing 0.12 M NaCl, 3 mM KCl, 1 mM MgCl2). The cells were incubated in the presence or absence of drugs at 37° C. in assay buffer supplemented with 0.1 mM Amplex® Red, and 0.32 U/ml of horse radish peroxidase (HRP) for 15 min. Fluorescence measurements were made using a Biotek Synergy 4 Hybrid Multi-Mode Microplate Reader with a 530/25-excitation and a 590/35-emission filter. The reaction was monitored at 37° C. for 1 h. A standard curve of known H2O2 concentrations was included on each plate. Nox4 activity was obtained by calculating the rate of H2O2 production as RFU/min and then subtracting the equivalent value given by non-transfected COS-22 cells. Similarly, H2O2 production by Nox2 cells was also measured by Amplex® Red as described above but in the presence of 150 U/mL of SOD and the reaction was initiated by addition of 5 μM PMA. The rate of H2O2 production in this case was calculated as RFU/min after the subtraction of the equivalent value given by non-stimulated cells. Data are expressed as % of vehicle control.
(§2) All data are expressed as means±SEM. IC50 values were determined using the GraphPad Prism software (GraphPad Software, San Diego, Calif.) for non-linear regression three-parameters, with constrain values of 100 and 0 for top and bottom, respectively, and assumes a Hill slope of 1.

Nox2 [2] = target: T1, Nox2; assay: ROS (superoxide) generation in whole COS-Nox2 cells, L-012 chemiluminescence; format: cell-based; details: for Activity in primary library screen: screened at 100, 50, 25, and 12.5 μM, COS-Nox2 cells; for IC50: whole COS-Nox2 cells stimulated with 5 μM PMA
Description: as §1
COS-Nox2, COS-Nox1/NOXO1/NOXA1, HEK-Nox5 and COS-22 cells were re-plated in OPTIMEM into 384-well white micro-plates (Greiner-Bio One GmbH, Germany) at a density of 2.5×10^3 cells/well for COS-Nox2 and 5×10^4 cells/well for all others. The cells were incubated at 37° C. in PBS containing […] L-012 for 10 min. Reaction was initiated by addition of 5 μM PMA in the case of Nox2 or 1 μM PMA/0.1 μM Ionomycin in the case of Nox5. Since Nox1 was constitutively active, Nox1-derived O2^•− was assessed by comparison to non-transfected cells (Cos22). Luminescence was quantified over time using a Biotek Synergy 4 Hybrid Multi-Mode Microplate Reader. The specificity of L-012 for O2^•− was confirmed by the addition of SOD (150 U/mL).
as §2
Heterologous Nox1, 2, 4, and 5 cell systems were used as a testing paradigm to identify a probe molecule that inhibits Nox2 selectively over Nox1, 4, and 5. An acceptable probe would also show a lack of activity against XO, which also produces ROS. The latter screen would serve two purposes: (1) to eliminate drugs that inhibit an oxidase of distinct composition; and (2) to preclude agents that directly scavenge ROS. A cell-based primary assay using stable Nox2-transfected COS cells (Price et al., Blood 2002, 99:2653-2661) with L-012 chemiluminescence (Daiber et al., Free Radic. Biol. Med. 2004, 36:101-111) was used as a detection system for O2^•−-generation.

IC50 (Nox2 [1]) | IC50 (Nox2 [2]) | Nox2 inhibitory activity (Nox2 [1]) | Selectivity for Nox2 over other Nox isoforms (Nox2 [1]) | SMILES | Activity in primary library screen (Nox2 [2])
30 ± 7.5 µM | 68 ± 33 µM |  |  | C=C(C)CC1C2c3ccccc3C(CC2(C)C)N1Cc1cccc(F)c1 (racemic) [Compound 11a, (±)-(1S,4R,9S)-10-(3-Fluorobenzyl)-3,3-dimethyl-9-(2-methylallyl)-1,2,3,4-tetrahydro-1,4-(epiminomethano)naphthalene] | 
> 100 µM | > 100 µM | completely abolished |  | C=C(C)CC1C2c3c(Br)cccc3C(CC2(C)C)N1Cc1ccnc2ccccc12 (racemic) [Compound 11b, (±)-(1S,4R,9S)-5-Bromo-3,3-dimethyl-9-(2-methylallyl)-10-(quinolin-4-ylmethyl)-1,2,3,4-tetra-hydro-1,4-(epiminomethano)naphthalene] | 
> 100 µM | > 100 µM | completely abolished |  | C=C(C)CC1C2c3c(Br)cccc3C(CC2(C)C)N1Cc1c[nH]c2ccccc12 (racemic) [Compound 11c, (±)-(1S,4R,9S)-10-((1H-Indol-3-yl)methyl)-5-bromo-3,3-dimethyl-9-(2-methylallyl)-1,2,3,4-tetrahydro-1,4-(epiminomethano)naphthalene] | 
40 µM | 88 ± 22 µM | decreased |  | C=C(C)CC1C2c3c(Br)cccc3C(CC2(C)C)N1Cc1ccc2c(c1)OCO2 (racemic) [Compound 11d, (±)-(1S,4R,9S)-10-(Benzo[d][1,3]dioxol-5-ylmethyl)-5-bromo-3,3-dimethyl-9-(2-methylallyl)-1,2,3,4-tetrahydro-1,4-(epiminomethano)naphthalene] | 
12 ± 0.5 µM | 48 ± 23 µM |  |  | C=C(C)CC1C2c3c(Br)cccc3C(CC2(C)C)N1Cc1cc(C)on1 (racemic) [Compound 11e, (±)-3-(1S,4R,9S)-5-Bromo-3,3-dimethyl-9-(2-methylallyl)-1,2,3,4-tetrahydro-1,4-(epimino-methano) naphthalen-10-yl)methyl)-5-methylisoxazole] | 
51 µM | 68 ± 22 µM |  |  | C=C(C)CC1C2c3c(Br)cccc3C(CC2(C)C)N1Cc1cccc(F)c1 (racemic) [Compound 11f, (±)-(1S,4R,9S)-5-Bromo-10-(3-fluorobenzyl)-3,3-dimethyl-9-(2-methylallyl)-1,2,3,4-tetrahydro-1,4-(epiminomethano)naphthalene] | 
20 ± 1.9 µM | 20 ± 4.9 µM |  | specificity for Nox2 over Nox1, 4, and 5 | C=C(C)CC1C2c3c(Br)cccc3C(CC2(C)C)N1CCCCC (racemic) [Compound 11g, (±)-(1S,4R,9S)-5-Bromo-3,3-dimethyl-9-(2-methylallyl-10-pentyl-1,2,3,4-tetrahydro-1,4-(epiminomethano)naphthalene] | 
32 ± 1.9 µM | 38 ± 11 µM |  | specificity for Nox2 over Nox1, 4, and 5 | C=C(C)CC1C2c3c(Br)cccc3C(CC2(C)C)N1Cc1cccs1 (racemic) [Compound 11h, (±)-(1S,4R,9S)-5-Bromo-3,3-dimethyl-9-(2-methylallyl)-10-(thiophen-2-ylmethyl)-1,2,3,4-tetrahydro-1,4-(epiminomethano)naphthalene] | 
64 ± 35 µM | 9 ± 0.9 µM | comparable | greater selectivity over Nox1 | C=C(C)CC1NC2CC(C)(C)C1c1c(-c3ccc(Cl)c(Cl)c3)cccc12 (racemic) [Compound 12a, (±)-(1S,4R,9S)-5-(3,4-Dichlorophenyl)-3,3-dimethyl-9-(2-methylallyl)-1,2,3,4-tetrahydro-1,4-(epiminomethano)naphthalene] | 
> 100 µM | > 100 µM | inactive |  | C=C(C)CC1C2c3c(-c4ccc(Cl)c(Cl)c4)cccc3C(CC2(C)C)N1Cc1ccc2c(c1)OCO2 (racemic) [Compound 12b, (±)-(1S,4R,9S)-10-(Benzo[d][1,3]dioxol-5-ylmethyl)-5-(3,4-dichlorophenyl)-3,3-dimethyl-9-(2-methylallyl)-1,2,3,4-tetrahydro-1,4-(epiminomethano)-naphthalene] | 
79 µM | > 100 µM | inactive |  | C=C(C)CC1C2c3c(-c4ccc(Cl)c(Cl)c4)cccc3C(CC2(C)C)N1CCCCC (racemic) [Compound 12c] | 
27 ± 4.7 µM | > 100 µM | completely abolished activity |  | C=C(C)CC1C2c3c(Br)cccc3C(CC2(C)C)N1S(C)(=O)=O (racemic) [Compound 14a, (±)-(1S,4R,9S)-5-Bromo-3,3-dimethyl-9-(2-methylallyl)-10-(methylsulfonyl)-1,2,3,4-tetrahydro-1,4-(epiminomethano)naphthalene] | 
> 100 µM | > 100 µM | completely abolished activity |  | C=C(C)CC1C2c3c(Br)cccc3C(CC2(C)C)N1S(=O)(=O)c1ccc(F)cc1 (racemic) [Compound 14b, (±)-(1S,4R,9S)-5-Bromo-10-((4-fluorophenyl)sulfonyl)-3,3-dimethyl-9-(2-methylallyl)-1,2,3,4-tetrahydro-1,4-(epiminomethano)naphthalene] | 

SMILES | IC50 (Nox2 [1]) | IC50 (Nox2 [2]) | Nox2 inhibitory activity (Nox2 [1]) | Selectivity for Nox2 over other Nox isoforms (Nox2 [1]) | Activity in primary library screen (Nox2 [2])
C=C(C)CC1NC2CC(C)(C)C1c1c(Br)cccc12 (racemic) [Compound 7, (±)-(1S,4R,9S)-5-Bromo-3,3-dimethyl-9-(2-methylallyl)-1,2,3,4-tetrahydro-1,4-(epimino-methano)-naphthalene] | 40 µM and 25 to 40 µM | 45 µM and 46 µM |  |  | hit
C=C(C)CC1NC2CC(C)(C)C1c1ccccc12 (racemic) [Compound 8, (±)-(1S,4R,9S)-3,3-Dimethyl-9-(2-methylallyl)-1,2,3,4-tetrahydro-1,4-(epiminomethano)-naphthalene] | > 100 µM | > 100 µM | inactive |  | 
CC(C)CC1NC2CC(C)(C)C1c1c(Br)cccc12 (racemic) [Compound 13] | 78 ± 19 µM | 31 ± 3.8 µM | retained inhibitory activity |  | 
C=C(C)C[C@@H]1N[C@H]2CC(C)(C)[C@@H]1c1c(Br)ccc(Br)c12 [Compound 9] | 25 ± 10 µM | 40 ± 2.8 µM |  |  | active
